Experiments:
[1] = tested on: HDAC; assay: HDAC fluorimetric assay kit (AK-500, Biomol), HeLa nuclear extract; assay type: biochemical
Procedure: HDAC inhibitors were screened using an HDAC fluorimetric assay kit (AK-500, Biomol, Plymouth Meeting, Pa.). […] Each assay was setup as follows: Defrosted all kit components and kept on ice until use. […] Prepared dilutions of Trichostatin A (TSA, positive control) and tested compounds in assay buffer (5× of final concentration). Diluted Fluor de Lys™ Substrate in assay buffer to 100 uM (50 fold=2× final). Diluted Fluor de Lys™ developer concentrate 20-fold (e.g. 50 μl plus 950 μl Assay Buffer) in cold assay buffer. Second, diluted the 0.2 mM Trichostatin A 100-fold in the 1× Developer (e.g. 10 μl in 1 ml; final Trichostatin A concentration in the 1× Developer=2 μM; final concentration after addition to HDAC/Substrate reaction=1 μM). Added Assay buffer, diluted trichostatin A or test inhibitor to appropriate wells of the microtiter plate. Added diluted HeLa extract or other HDAC sample to all wells except for negative controls.

[2] = biological target: human VEGFR2 (Homo sapiens, UniProt P35968); assay: HTScan Receptor Kinase Assay, VEGFR2;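 also: recombinant GST-His-tagged human VEGFR2 kinase domain phosphorylating biotinylated gastrin precursor peptide, 30 min at room temperature, phosphotyrosine detected by Europium-labelled antibody time-resolved fluorescence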
Chain of human VEGFR2 (P35968 807-1356 limits assumed): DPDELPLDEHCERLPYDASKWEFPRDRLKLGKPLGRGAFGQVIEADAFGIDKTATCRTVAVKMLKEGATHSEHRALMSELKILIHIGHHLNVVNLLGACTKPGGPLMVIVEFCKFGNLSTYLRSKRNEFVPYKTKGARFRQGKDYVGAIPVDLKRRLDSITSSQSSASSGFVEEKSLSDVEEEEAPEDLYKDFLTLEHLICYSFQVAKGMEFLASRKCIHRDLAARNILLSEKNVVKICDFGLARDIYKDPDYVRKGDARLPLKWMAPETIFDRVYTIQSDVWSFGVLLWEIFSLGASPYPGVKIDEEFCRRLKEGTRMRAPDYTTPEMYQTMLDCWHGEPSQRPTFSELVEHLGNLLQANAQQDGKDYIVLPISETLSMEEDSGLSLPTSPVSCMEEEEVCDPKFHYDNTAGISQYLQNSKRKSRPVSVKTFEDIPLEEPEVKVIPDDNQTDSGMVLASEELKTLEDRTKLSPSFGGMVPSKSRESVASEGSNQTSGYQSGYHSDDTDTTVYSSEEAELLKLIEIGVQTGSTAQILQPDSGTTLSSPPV

[3] = biological target: T1, human EGFR (Homo sapiens, UniProt P00533); assay: HTScan Receptor Kinase Assay, EGFR; assay type: biochemical
T1 construct: human EGFR (His672-Ala1210); GST (N); purchased Cell Signaling Technologies; host or cells: baculovirus expression system
T1 sequence (P00533 672-1210): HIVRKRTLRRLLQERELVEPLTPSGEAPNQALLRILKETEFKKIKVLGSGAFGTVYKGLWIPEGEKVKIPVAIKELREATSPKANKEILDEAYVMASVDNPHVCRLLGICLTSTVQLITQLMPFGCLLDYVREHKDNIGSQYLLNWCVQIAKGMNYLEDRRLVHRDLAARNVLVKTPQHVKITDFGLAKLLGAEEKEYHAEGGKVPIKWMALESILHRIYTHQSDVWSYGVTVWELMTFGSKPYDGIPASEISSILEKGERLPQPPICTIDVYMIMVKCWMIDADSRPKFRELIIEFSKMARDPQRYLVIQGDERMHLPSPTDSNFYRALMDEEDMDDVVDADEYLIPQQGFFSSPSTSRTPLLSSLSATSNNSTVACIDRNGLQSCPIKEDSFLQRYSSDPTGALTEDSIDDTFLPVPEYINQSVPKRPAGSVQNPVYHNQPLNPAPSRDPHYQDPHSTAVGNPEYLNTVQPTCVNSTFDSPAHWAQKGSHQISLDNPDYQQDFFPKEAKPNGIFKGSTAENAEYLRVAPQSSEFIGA

[4] = biological target: human HER2/ErbB2 (Homo sapiens, UniProt P04626); assay: HTScan Receptor Kinase Assay, HER2/ErbB2;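 also: europium time-resolved fluorescence detection of anti-phosphotyrosine antibody binding to biotinylated FLT3 (Tyr589) peptide phosphorylated by the kinase, 30 min reaction at room temperature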
Chain of human HER2/ErbB2 (P04626 676-1255): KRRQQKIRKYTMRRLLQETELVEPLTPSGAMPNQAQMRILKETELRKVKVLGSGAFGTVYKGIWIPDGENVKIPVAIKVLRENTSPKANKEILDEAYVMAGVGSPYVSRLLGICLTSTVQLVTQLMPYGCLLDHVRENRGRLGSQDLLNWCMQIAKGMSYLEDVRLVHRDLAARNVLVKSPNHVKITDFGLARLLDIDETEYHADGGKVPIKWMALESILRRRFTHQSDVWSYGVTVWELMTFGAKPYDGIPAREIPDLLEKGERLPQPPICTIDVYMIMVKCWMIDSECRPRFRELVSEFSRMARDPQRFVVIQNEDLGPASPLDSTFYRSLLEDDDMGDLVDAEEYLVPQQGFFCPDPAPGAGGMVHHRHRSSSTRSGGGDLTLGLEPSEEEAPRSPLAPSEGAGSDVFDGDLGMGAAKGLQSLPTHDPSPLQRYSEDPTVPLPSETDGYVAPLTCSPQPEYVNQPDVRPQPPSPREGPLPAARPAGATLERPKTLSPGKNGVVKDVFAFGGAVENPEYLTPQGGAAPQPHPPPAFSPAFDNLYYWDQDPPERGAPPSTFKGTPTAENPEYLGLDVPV

| IC50 [1] | IC50 [2] | IC50 [3] | IC50 [4] | Structure (SMILES) |
| --- | --- | --- | --- | --- |
| 1 to 10 µM | 0.1 to 1 µM | < 0.1 µM | < 0.1 µM | C[C@@H](Nc1ncnc2[nH]c(-c3ccc(CN4CCN(CCCC(=O)NO)CC4)cc3)cc12)c1ccccc1 [Compound 13, (R)—N-Hydroxy-4-(4-(4-(4-(1-phenylethylamino)-7H-pyrrolo[2,3-d]pyrimidin-6-yl)benzyl)piperazin-1-yl)butanamide] |
| 0.1 to 1 µM | 0.1 to 1 µM | < 0.1 µM | < 0.1 µM | C[C@@H](Nc1ncnc2[nH]c(-c3ccc(C(=O)NO)cc3)cc12)c1ccccc1 [Compound 39, (R)—N-hydroxy-4-(4-(1-phenylethylamino)-7H-pyrrolo[2,3-d]pyrimidin-6-yl)benzamide] |
| – | < 0.1 µM | < 0.1 µM | < 0.1 µM | C[C@@H](Nc1ncnc2[nH]c(-c3ccc(NCCCCCC(=O)NO)cc3)cc12)c1ccccc1 [Compound 66, (R)—N-hydroxy-6-(4-(4-(1-phenylethylamino)-7H-pyrrolo[2,3-d]pyrimidin-6-yl)phenylamino)hexanamide] |
| 0.1 to 1 µM | 0.1 to 1 µM | – | 0.1 to 1 µM | C[C@@H](Nc1ncnc2[nH]c(-c3ccc(CN4CCN(CCCCCC(=O)NO)CC4)cc3)cc12)c1ccccc1 [Compound 15, (R)—N-Hydroxy-6-(4-(4-(4-(1-phenylethylamino)-7H-pyrrolo[2,3-d]pyrimidin-6-yl)benzyl)piperazin-1-yl)hexanamide] |
| 1 to 10 µM | – | – | – | C[C@@H](Nc1ncnc2[nH]c(-c3ccc(OCCCNCCCCCC(=O)NO)cc3)cc12)c1ccccc1 [Compound 62] |
| 1 to 10 µM | 0.1 to 1 µM | < 0.1 µM | 0.1 to 1 µM | C[C@@H](Nc1ncnc2[nH]c(-c3ccc(CN4CCN(CCCCC(=O)NO)CC4)cc3)cc12)c1ccccc1 [Compound 14, (R)—N-Hydroxy-5-(4-(4-(4-(1-phenylethylamino)-7H-pyrrolo[2,3-d]pyrimidin-6-yl)benzyl)piperazin-1-yl)pentanamide] |
| 0.1 to 1 µM | 0.1 to 1 µM | < 0.1 µM | 0.1 to 1 µM | C[C@@H](Nc1ncnc2[nH]c(-c3ccc(CNCc4ccc(C(=O)NO)cc4)cc3)cc12)c1ccccc1 [Compound 44, (R)—N-hydroxy-4-((4-(4-(1-phenylethylamino)-7H-pyrrolo[2,3-d]pyrimidin-6-yl)benzylamino)methyl)benzamide] |
| > 10 µM | 0.1 to 1 µM | < 0.1 µM | < 0.1 µM | C[C@@H](Nc1ncnc2[nH]c(-c3ccc(CN4CCN(CCC(=O)NO)CC4)cc3)cc12)c1ccccc1 [Compound 12, (R)—N-Hydroxy-3-(4-(4-(4-(1-phenylethylamino)-7H-pyrrolo[2,3-d]pyrimidin-6-yl)benzyl)piperazin-1-yl)propanamide] |
| 0.1 to 1 µM | 0.1 to 1 µM | < 0.1 µM | 0.1 to 1 µM | C[C@@H](Nc1ncnc2[nH]c(-c3ccc(CNCCCCCC(=O)NO)cc3)cc12)c1ccccc1 [Compound 32, (R)—N-hydroxy-6-(4-(4-(1-phenylethylamino)-7H-pyrrolo[2,3-d]pyrimidin-6-yl)benzylamino)hexanamide] |
| < 0.1 µM | 0.1 to 1 µM | < 0.1 µM | 0.1 to 1 µM | C[C@@H](Nc1ncnc2[nH]c(-c3ccc(C(=O)NCCNCCCCCCC(=O)NO)cc3)cc12)c1ccccc1 [Compound 31, (R)—N-(2-(7-(Hydroxyamino)-7-oxoheptylamino)ethyl)-4-(4-(1-phenylethylamino)-7H-pyrrolo[2,3-d]pyrimidin-6-yl)benzamide] |
| 0.1 to 1 µM | 0.1 to 1 µM | < 0.1 µM | 0.1 to 1 µM | C[C@@H](Nc1ncnc2[nH]c(-c3ccc(NC(=O)CCCC(=O)NO)cc3)cc12)c1ccccc1 [Compound 25, (R)—N^1-Hydroxy-N^5-(4-(4-(1-phenylethylamino)-7H-pyrrolo[2,3-d]pyrimidin-6-yl)phenyl)glutaramide] |
| > 10 µM | < 0.1 µM | < 0.1 µM | < 0.1 µM | C[C@@H](Nc1ncnc2[nH]c(-c3ccc(CN4CCN(CC(=O)NO)CC4)cc3)cc12)c1ccccc1 [Compound 11, (R)—N-Hydroxy-2-(4-(4-(4-(1-phenylethylamino)-7H-pyrrolo[2,3-d]pyrimidin-6-yl)benzyl)piperazin-1-yl)acetamide] |
| 0.1 to 1 µM | 1 to 10 µM | – | 0.1 to 1 µM | C[C@@H](Nc1ncnc2c1cc(-c1ccc(C(=O)NCCNCCCCCCC(=O)NO)cc1)n2C)c1ccccc1 [Compound 58] |
| 0.1 to 1 µM | 1 to 10 µM | < 0.1 µM | 0.1 to 1 µM | C[C@@H](Nc1ncnc2[nH]c(-c3ccc(NCc4ccc(C(=O)NO)cc4)cc3)cc12)c1ccccc1 [Compound 43, (R)—N-Hydroxy-4-((4-(4-(1-phenylethylamino)-7H-pyrrolo[2,3-d]pyrimidin-6-yl)phenylamino)methyl)benzamide] |
| < 0.1 µM | – | – | – | C[C@@H](Nc1ncnc2c1cc(-c1ccc(N)cc1)n2CCCCCCC(=O)NO)c1ccccc1 [Compound 65] |
| < 0.1 µM | – | – | – | C[C@@H](Nc1ncnc2[nH]c(-c3ccc(CN4CCN(CCOCCCCCC(=O)NO)CC4)cc3)cc12)c1ccccc1 [Compound 51, (R)—N-hydroxy-6-(2-(4-(4-(4-(1-phenylethylamino)-7H-pyrrolo[2,3-d]pyrimidin-6-yl)benzyl)piperazin-1-yl)ethoxy)hexanamide] |
| 0.1 to 1 µM | – | – | < 0.1 µM | C[C@@H](Nc1ncnc2[nH]c(-c3ccc(OCCNCCCCCCCC(=O)NO)cc3)cc12)c1ccccc1 [Compound 61, (R)—N-hydroxy-8-(2-(4-(4-(1-phenylethylamino)-7H-pyrrolo[2,3-d]pyrimidin-6-yl)phenoxy)ethylamino)octanamide] |
| > 10 µM | 0.1 to 1 µM | – | – | C[C@@H](Nc1ncnc2[nH]c(-c3ccc(CNCCC(=O)NO)cc3)cc12)c1ccccc1 [Compound 2, (R)—N-Hydroxy-3-(4-(4-(1-phenylethylamino)-7H-pyrrolo[2,3-d]pyrimidin-6-yl)benzylamino)-propanamide] |
| 0.1 to 1 µM | – | – | – | C[C@@H](Nc1ncnc2[nH]c(-c3ccc(OCCNCCCCCC(=O)NO)cc3)cc12)c1ccccc1 [Compound 59, (R)—N-hydroxy-6-(2-(4-(4-(1-phenylethylamino)-7H-pyrrolo[2,3-d]pyrimidin-6-yl)phenoxy)ethylamino)hexanamide] |
| 1 to 10 µM | – | – | – | C[C@@H](Nc1ncnc2[nH]c(-c3ccc(CN4CCC(NCCCCCC(=O)NO)CC4)cc3)cc12)c1ccccc1 [Compound 55, (R)—N-hydroxy-6-(1-(4-(4-(1-phenylethylamino)-7H-pyrrolo[2,3-d]pyrimidin-6-yl)benzyl)piperidin-4-ylamino)hexanamide] |
| 1 to 10 µM | – | – | – | C[C@@H](Nc1ncnc2[nH]c(-c3ccc(NC(=O)Nc4ccc(/C=C/C(=O)NO)cc4)cc3)cc12)c1ccccc1 [Compound 47] |
| 0.1 to 1 µM | – | – | – | C[C@@H](Nc1ncnc2[nH]c(-c3ccc(NC(=O)Nc4ccc(C(=O)NO)cc4)cc3)cc12)c1ccccc1 [Compound 46] |
| 1 to 10 µM | – | – | – | C[C@@H](Nc1ncnc2[nH]c(-c3ccc(CN4CCC(NCCCCCCC(=O)NO)CC4)cc3)cc12)c1ccccc1 [Compound 56, (R)—N-hydroxy-7-(1-(4-(4-(1-phenylethylamino)-7H-pyrrolo[2,3-d]pyrimidin-6-yl)benzyl)piperidin-4-ylamino)heptanamide] |
| 0.1 to 1 µM | 0.1 to 1 µM | – | 0.1 to 1 µM | C[C@@H](Nc1ncnc2[nH]c(-c3ccc(CN4CCN(CCCCCC(=O)NO)CC4)cc3)cc12)c1ccc(F)cc1 [Compound 35] |
| 1 to 10 µM | – | – | – | C[C@@H](Nc1ncnc2[nH]c(-c3ccc(CN4CCN(CCOCCCCC(=O)NO)CC4)cc3)cc12)c1ccccc1 [Compound 50, (R)—N-hydroxy-5-(2-(4-(4-(4-(1-phenylethylamino)-7H-pyrrolo[2,3-d]pyrimidin-6-yl)benzyl)piperazin-1-yl)ethoxy)pentanamide] |
| – | > 10 µM | > 10 µM | > 10 µM | C[C@@H](Nc1ncnc2[nH]c(-c3ccc(CNCc4ccc(/C=C/C(=O)NO)cc4)cc3)cc12)c1ccccc1 [Compound 45, (R,E)-N-hydroxy-3-(4-((4-(4-(1-phenylethylamino)-7H-pyrrolo[2,3-d]pyrimidin-6-yl)benzylamino)methyl)phenyl)acrylamide] |
| 0.1 to 1 µM | – | – | – | C[C@@H](Nc1ncnc2c1cc(-c1ccc(N)cc1)n2CCCCCC(=O)NO)c1ccccc1 [Compound 64] |
| 1 to 10 µM | – | 1 to 10 µM | 1 to 10 µM | C[C@@H](Nc1ncnc2[nH]c(-c3ccc(CNCC(=O)NO)cc3)cc12)c1ccccc1 [Compound 1, (R)—N-Hydroxy-2-(4-(4-(1-phenylethylamino)-7H-pyrrolo[2,3-d]pyrimidin-6-yl)benzylamino)acetamide] |
| 0.1 to 1 µM | – | – | – | C[C@@H](Nc1ncnc2c1cc(-c1ccc(CNCCN)cc1)n2CCCCCC(=O)NO)c1ccccc1 [Compound 63] |
| 0.1 to 1 µM | – | – | < 0.1 µM | C[C@@H](Nc1ncnc2[nH]c(-c3ccc(CN4CCC(NCCCCCCCC(=O)NO)CC4)cc3)cc12)c1ccccc1 [Compound 57, (R)—N-hydroxy-8-(1-(4-(4-(1-phenylethylamino)-7H-pyrrolo[2,3-d]pyrimidin-6-yl)benzyl)piperidin-4-ylamino)octanamide] |

— US20080161320A1, “FUSED BICYCLIC PYRIMIDINES AS PTK INHIBITORS CONTAINING A ZINC BINDING MOIETY” (priority 2006, published 2008)
